Test results: PubChem BioAssay AID248 (DTP/NCI, 2004)
Several values for one entry are separate records, joined by “and”; a condition that tells them apart may be missing. Equal values may be shown once. Inconclusive results and toxic doses are left out. Cut-off read from the data, not from the text of the source: active = T/C of 150% or more; inactive = T/C below 125%.

System: L1210 leukemia ip in BDF1 mice, survival T/C
Test: NCI In Vivo Anticancer Drug Screen. Data for tumor model L1210 Leukemia (intraperitoneal) in B6D2F1 (BDF1) mice
Conditions: endpoint: mean survival time, higher = longer survival
Procedure, shortened: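 In this screen, tumor-bearing mice given compound are compared to those given vehicle, and their survival values are reported as a treated-to-control quotient.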

[1] = dose: 100.0 mg/kg/injection, schedule: Q01DX001 (ip), vehicle: carboxymethylcellulose (CMC)
[2] = dose: 200.0 mg/kg/injection, schedule: Q01DX001 (ip), vehicle: carboxymethylcellulose (CMC)
[3] = dose: 400.0 mg/kg/injection, schedule: Q01DX001 (ip), vehicle: carboxymethylcellulose (CMC)
[4] = dose: 100.0 mg/kg/injection, schedule: Q01DX009 (ip), vehicle: saline with Tween-80
[5] = dose: 100.0 mg/kg/injection, schedule: Q04DX003 (ip), vehicle: saline with Tween-80
[6] = dose: 200.0 mg/kg/injection, schedule: Q01DX009 (ip), vehicle: saline with Tween-80
[7] = dose: 200.0 mg/kg/injection, schedule: Q04DX003 (ip), vehicle: saline with Tween-80
[8] = dose: 400.0 mg/kg/injection, schedule: Q01DX009 (ip), vehicle: saline with Tween-80
[9] = dose: 400.0 mg/kg/injection, schedule: Q04DX003 (ip), vehicle: saline with Tween-80
[10] = dose: 100.0 mg/kg/injection, schedule: Q01DX009 (ip), vehicle: saline
[11] = dose: 100.0 mg/kg/injection, schedule: Q04DX003 (ip), vehicle: saline
[12] = dose: 200.0 mg/kg/injection, schedule: Q01DX009 (ip), vehicle: saline
[13] = dose: 200.0 mg/kg/injection, schedule: Q04DX003 (ip), vehicle: saline
[14] = dose: 400.0 mg/kg/injection, schedule: Q01DX009 (ip), vehicle: saline
[15] = dose: 400.0 mg/kg/injection, schedule: Q04DX003 (ip), vehicle: saline
[16] = dose: 100.0 mg/kg/injection, schedule: Q01DX009 (ip), vehicle: other
[17] = dose: 100.0 mg/kg/injection, schedule: Q04DX003 (ip), vehicle: Klucel (hydroxypropylcellulose) (HPC)
[18] = dose: 200.0 mg/kg/injection, schedule: Q04DX003 (ip), vehicle: Klucel (hydroxypropylcellulose) (HPC)
[19] = dose: 400.0 mg/kg/injection, schedule: Q04DX003 (ip), vehicle: Klucel (hydroxypropylcellulose) (HPC)

Measured: T/C

O=C1CC(C(=O)Nc2ccccc2)C(c2ccccc2)(c2ccccc2)O1 (centres undefined)
inactive: [1] 97 % of control | [2] 106 % of control | [3] 95 % of control

Cc1nc(OCc2ccccc2)c(C(=O)OCc2ccccc2)nc1C
inactive: [4] 103 % of control | [5] 101 % of control | [6] 97 % of control | [7] 102 % of control | [8] 101 % of control | [9] 98 % of control

CCCCC(CC)C1N(C)CCCN1C (centres undefined)
inactive: [5] 92 % of control | [7] 98 % of control

COc1cccc(/C=N\O)c1
inactive: dose: 50.0 mg/kg/injection, schedule: Q01DX009 (ip), vehicle: saline 98 % of control | dose: 50.0 mg/kg/injection, schedule: Q04DX003 (ip), vehicle: saline 95 % of control | [10] 100 % of control | [11] 95 % of control | [12] 96 % of control | [13] 101 % of control | [14] 95 % of control | [15] 95 % of control

O=C(Nc1cccc(Cl)c1Cl)OCCN1CCNC1=S
inactive: [10] 94 % of control | [12] 96 % of control | [14] 102 % of control

O=c1c2ccccc2sc2c1ccc1c2ccc2c(=O)c3ccccc3sc21
inactive: [5] 96 % of control | [7] 87 % of control

COc1ccc(C(O)(c2ccccc2)C(OC(=O)c2cc([N+](=O)[O-])cc([N+](=O)[O-])c2)c2ccccc2)cc1 (centres undefined)
inactive: [4] 91 % of control | [6] 96 % of control | [8] 95 % of control

CC(C)c1ccc([N+](=O)[O-])cc1
inactive: [4] 96 % of control | [6] 106 % of control

Cc1c(-c2ccccc2)ccnc1C#N
inactive: dose: 50.0 mg/kg/injection, schedule: Q01DX009 (ip), vehicle: saline with Tween-80 97 % of control | [4] 102 % of control | [6] 97 % of control

O=CN(c1ccccc1)c1ccccc1
inactive: [16] 109 % of control | [11] 100 % of control | dose: 200.0 mg/kg/injection, schedule: Q01DX009 (ip), vehicle: other 106 % of control | [13] 102 % of control | dose: 400.0 mg/kg/injection, schedule: Q01DX009 (ip), vehicle: other 106 % of control | [15] 109 % of control

[Cl][Pt+2][Cl].[NH-]C1CCCC1.[NH-]C1CCCC1
inactive: dose: 10.0 mg/kg/injection, schedule: Q01DX009 (ip), vehicle: Klucel (hydroxypropylcellulose) (HPC) 102 % of control | dose: 20.0 mg/kg/injection, schedule: Q01DX009 (ip), vehicle: Klucel (hydroxypropylcellulose) (HPC) 116 % of control | dose: 20.0 mg/kg/injection, schedule: Q04DX003 (ip), vehicle: Klucel (hydroxypropylcellulose) (HPC) 121 % of control | dose: 40.0 mg/kg/injection, schedule: Q01DX005 (ip), vehicle: olive oil, sesame oil, peanut oil 109 % of control | dose: 40.0 mg/kg/injection, schedule: Q01DX009 (ip), vehicle: Klucel (hydroxypropylcellulose) (HPC) 107 % of control | dose: 40.0 mg/kg/injection, schedule: Q04DX003 (ip), vehicle: Klucel (hydroxypropylcellulose) (HPC) 111 % of control and 123 % of control | dose: 66.0 mg/kg/injection, schedule: Q01DX005 (ip), vehicle: olive oil, sesame oil, peanut oil 112 % of control | dose: 80.0 mg/kg/injection, schedule: Q01DX009 (ip), vehicle: Klucel (hydroxypropylcellulose) (HPC) 121 % of control | dose: 80.0 mg/kg/injection, schedule: Q04DX003 (ip), vehicle: Klucel (hydroxypropylcellulose) (HPC) 117 % of control | dose: 100.0 mg/kg/injection, schedule: Q01DX005 (ip), vehicle: olive oil, sesame oil, peanut oil 120 % of control | dose: 150.0 mg/kg/injection, schedule: Q01DX005 (ip), vehicle: olive oil, sesame oil, peanut oil 115 % of control | dose: 160.0 mg/kg/injection, schedule: Q01DX009 (ip), vehicle: Klucel (hydroxypropylcellulose) (HPC) 124 % of control | dose: 160.0 mg/kg/injection, schedule: Q04DX003 (ip), vehicle: Klucel (hydroxypropylcellulose) (HPC) 108 % of control and 112 % of control | dose: 320.0 mg/kg/injection, schedule: Q01DX009 (ip), vehicle: Klucel (hydroxypropylcellulose) (HPC) 96 % of control | dose: 320.0 mg/kg/injection, schedule: Q04DX003 (ip), vehicle: Klucel (hydroxypropylcellulose) (HPC) 118 % of control

CCCCCCCCC(=O)Nc1cccc(OC(=O)NC)c1
inactive: [5] 94 % of control | [7] 96 % of control | [9] 90 % of control

CC(C)(C)c1ccc(SSc2ccc(C(C)(C)C)cc2)cc1
inactive: dose: 50.0 mg/kg/injection, schedule: Q01DX009 (ip), vehicle: Klucel (hydroxypropylcellulose) (HPC) 94 % of control | dose: 100.0 mg/kg/injection, schedule: Q01DX009 (ip), vehicle: Klucel (hydroxypropylcellulose) (HPC) 94 % of control | [17] 94 % of control | dose: 200.0 mg/kg/injection, schedule: Q01DX009 (ip), vehicle: Klucel (hydroxypropylcellulose) (HPC) 98 % of control | [18] 91 % of control | dose: 400.0 mg/kg/injection, schedule: Q01DX009 (ip), vehicle: Klucel (hydroxypropylcellulose) (HPC) 96 % of control | [19] 92 % of control

O=c1[nH]c2ccccc2cc1Br
inactive: dose: 100.0 mg/kg/injection, schedule: Q01DX001 (ip), vehicle: other 96 % of control | dose: 200.0 mg/kg/injection, schedule: Q01DX001 (ip), vehicle: other 96 % of control | dose: 400.0 mg/kg/injection, schedule: Q01DX001 (ip), vehicle: other 105 % of control

CC(C)n1c2c([n+](C)c1/C=C/c1ccccc1)C(=O)c1ccccc1C2=O
inactive: dose: 1.0 mg/kg/injection, schedule: Q01DX009 (ip), vehicle: Klucel (hydroxypropylcellulose) (HPC) 106 % of control | dose: 1.0 mg/kg/injection, schedule: Q04DX003 (ip), vehicle: Klucel (hydroxypropylcellulose) (HPC) 107 % of control | dose: 2.0 mg/kg/injection, schedule: Q01DX009 (ip), vehicle: Klucel (hydroxypropylcellulose) (HPC) 101 % of control | dose: 2.0 mg/kg/injection, schedule: Q04DX003 (ip), vehicle: Klucel (hydroxypropylcellulose) (HPC) 96 % of control | dose: 4.0 mg/kg/injection, schedule: Q04DX003 (ip), vehicle: Klucel (hydroxypropylcellulose) (HPC) 86 % of control | dose: 5.0 mg/kg/injection, schedule: Q01DX001 (ip), vehicle: saline 103 % of control

CCOC(=O)C(Br)C(Br)c1cccc([N+](=O)[O-])c1 (centres undefined)
inactive: [16] 105 % of control | dose: 100.0 mg/kg/injection, schedule: Q04DX003 (ip), vehicle: other 106 % of control | dose: 200.0 mg/kg/injection, schedule: Q04DX003 (ip), vehicle: other 94 % of control | dose: 400.0 mg/kg/injection, schedule: Q04DX003 (ip), vehicle: other 86 % of control

O=[N+]([O-])c1ccc2c(c1)/C(=N\O)c1cc(Cl)c(Cl)cc1-2
inactive: [1] 98 % of control | dose: 100.0 mg/kg/injection, schedule: Q04DX003 (ip), vehicle: acetone 94 % of control | [2] 98 % of control | dose: 200.0 mg/kg/injection, schedule: Q04DX003 (ip), vehicle: acetone 100 % of control | [3] 95 % of control | dose: 400.0 mg/kg/injection, schedule: Q04DX003 (ip), vehicle: acetone 96 % of control

CCCCCCCCCCCCC(O)C(=O)O (centres undefined)
inactive: [17] 95 % of control | [18] 95 % of control | [19] 94 % of control

COc1ccc(/C=N\NC(=O)N/N=C/c2ccc(OC)c(Br)c2)cc1Br
inactive: dose: 50.0 mg/kg/injection, schedule: Q04DX002 (ip), vehicle: Klucel (hydroxypropylcellulose) (HPC) 106 % of control | dose: 100.0 mg/kg/injection, schedule: Q04DX002 (ip), vehicle: Klucel (hydroxypropylcellulose) (HPC) 98 % of control and 103 % of control | dose: 200.0 mg/kg/injection, schedule: Q04DX002 (ip), vehicle: Klucel (hydroxypropylcellulose) (HPC) 88 % of control | dose: 400.0 mg/kg/injection, schedule: Q04DX002 (ip), vehicle: Klucel (hydroxypropylcellulose) (HPC) 91 % of control
